The results in this text go back to a melting point compilation (Tetko et al.; mined from patent text by program, amines drawn as free bases though some values may be those of a salt).

Some results are limits rather than exact numbers.

The melting point is the temperature of the solid-liquid transition.

`COC(=O)c1nc(Br)c(F)c(NC(C)=O)c1Cl`: the melting point was 190 to 192 °C.

On to `O=P1(O)Oc2ccccc2-c2cc(F)ccc21`, for which the melting point came to 240 °C.

As to `O=C(OC(F)C(F)F)c1cnccn1` (centres undefined), the melting point fell in the range of 46 to 48 °C.

Regarding `CN(C)CCn1c(=O)c2cc(N)ccc2c2cnc3cc4c(cc3c21)OCO4`, the melting point lay in the range of 245 to 246 °C.

Consider `Cc1nc(S(=O)Cc2ccc(Cl)cc2)nc2c1CCCC2` (centres undefined), for which the melting point came to 127 °C.

In the case of `CC1CCN(c2nccc(Oc3ccc(NC(=O)c4cc(F)cc(N5CCOCC5)c4)c4ccccc34)n2)CC1`, the melting point is 117 to 118 °C.

In the case of `C[C@@H]1N(c2ccc(C#N)c(C(F)(F)F)c2)C(=O)C[C@@]1(O)C1CC1`, the melting point lay in the range of 84 to 90 °C.

`Cc1ccn2c(C)c(-c3ccc4c(c3)NC(=O)CO4)nc2c1` yielded a melting point of 239 to 241 °C.

In turn, `COc1cc(-n2cnc(C)c2C)cc2oc(=O)c(C)c(C)c12` came in with a melting point of 196 to 198 °C.

Turning to `Cc1cc(NC(=O)OC(C)(C)C)c([N+](=O)[O-])cc1I`, the melting point lay in the range of 99 to 100 °C.

`CC1CCN=C2C(=O)c3cc(Br)ccc3N21` (centres undefined) gave a melting point of 127 to 129 °C.

Consider `COc1cc(-c2c3c(cc4ccc5c(c24)OCO5)C(=O)NC3)ccc1OCc1ccccc1`, for which the melting point fell in the range of 236 to 239 °C.

The compound `CCOC(=O)CC(C#N)=CC(=CN(C)C)c1ccc(Cl)cc1` had a melting point of 168 to 170 °C.

Consider `Cc1cccc2c(=O)[nH]c(N3CCN(C)C(CO)C3)cc12` (centres undefined), for which the melting point fell in the range of 184 to 186 °C.

Compound `CC(=O)NC[C@H]1CN(c2ccc(-n3cc(-c4ccc(C)cc4)cn3)c(F)c2)C(=O)O1` had a melting point of 222 to 223 °C.

In the case of `NCC1Cc2cc(-c3cccc(Cl)c3)cc(F)c2O1` (centres undefined), the melting point was above 250 °C.

Consider `CN(C)C(=O)Cc1ccc(CNC(=O)[C@@H](CCCNC(N)=N[N+](=O)[O-])NC(=O)C(c2ccccc2)c2ccccc2)cc1`, for which the melting point was 198 to 200 °C.

For the compound `COc1ccc(Cn2c(=O)c(Cl)nc3ccc4ccccc4c32)c(OC)c1`, the melting point amounted to 186 °C.

For the compound `O=C1N=C(c2ccccc2OCC2CC2)N=C2N=CN=C12`, the melting point was 259 to 260 °C.

`CCOC(=O)c1cc2c3ccccc3ncn2c1` had a melting point of 138 to 139 °C.

Compound `CCCN(CCC)c1nc2c(N3CCCCCC3)nc(N3CCCCCC3)cc2c(=O)[nH]1` showed a melting point of 220 °C.

With `O=C(NC(Cc1c[nH]c2ccccc12)C(=O)NCc1cc(C(F)(F)F)cc(C(F)(F)F)c1)c1ccccc1` (centres undefined), the melting point is 182 to 184 °C.

`Cn1cc(-c2ccccc2)c(=O)c(-c2cccc(Br)c2)c1` yielded a melting point of 172 °C.

In turn, `COC(=O)c1ccc(N2C(=O)C(O)=C(C(=O)c3ccc(C)cc3)C2c2ccc(C(C)C)cc2)nc1` (centres undefined) displayed a melting point of 264 to 266 °C.

With `CC(C)=CCOC(C)C1CCC2=C3C=CC4C(C)(C)C(O)CCC4(C)C3CCC21C` (centres undefined), the melting point was 171 to 174 °C.

The compound `CC(=O)NC1(c2ccc(Cl)cc2)c2ccc(Cl)cc2-c2ncncc21` (centres undefined) came in with a melting point of 238 to 241 °C.

The compound `CNC(=O)Nc1nc2c(s1)C(C)(C)CC(C)(C)C2` showed a melting point above 250 °C.

In the case of `CCc1cc(=O)n2c3c(cc(C(O)(C(F)(F)F)C(F)(F)F)cc13)CCC2`, the melting point lay in the range of 209 to 210 °C.

Compound `CCCN(CCC)C(=O)c1cc(C(=O)N[C@@H](Cc2cc(F)cc(F)c2)[C@H](O)CNCc2cccc(CC)c2)cc(-c2ncco2)c1` gave a melting point of 65 to 67 °C.

Turning to `FC(F)(F)c1ccc2nc3c(nc2c1)-c1cccc2cccc-3c12`, the melting point was 185 to 186 °C.

With `Cc1cc2c(cc1Cl)NC(=O)CC(c1cccc(-c3ccnc(CNC4CC4)c3)c1)=N2`, the melting point stood at 171 °C.

Turning to `CC(=O)OCCN(C)CC#CC1=Cc2ccccc2Sc2ccc(Cl)cc21`, the melting point was in the range of 48 to 51 °C.

For the compound `CNC(=O)C(=O)c1ccccc1COc1ccc(-c2ccccc2)cc1`, the melting point was in the range of 144 to 145 °C.

Compound `CCOC(=O)c1[nH]c2c(c1C)CC1CN(CC)CCC1(c1cccc(O)c1)C2` (centres undefined) showed a melting point of 195 to 197 °C.
